We go through 15 molecules from patent US10329272B2 (priority 2015, dated 2019).

What is called melting point is the temperature of the solid-liquid transition.

For series [1], the system named is Botryotinia fuckeliana (Botrytis cinerea). Nature of the series: Botryotinia fuckeliana (Botrytis cinerea)/Liquid Culture (Gray Mould). In kind it is cell-based. The following applies: liquid culture, growth inhibition photometrically 3-4 days after application, compared to untreated control. The method, then:
Biological Examples Botryotinia fuckeliana (Botrytis cinerea)/Liquid Culture (Gray Mould)
Conidia of the fungus from cryogenic storage are directly mixed into nutrient broth (Vogels broth). After placing a (DMSO) solution of test compound into a microtiter plate (96-well format), the nutrient broth containing the fungal spores is added. The test plates are incubated at 24° C. and the inhibition of growth is determined photometrically 3-4 days after application.

The test system of series [2] is Monographella nivalis (Microdochium nivale). Nature of the series: Monographella Nivalis (Microdochium Nivale)/Liquid Culture (Foot Rot Cereals). In kind it is cell-based. The note with it: liquid culture, growth inhibition photometrically 4-5 days after application, compared to untreated control. As to the method: Monographella Nivalis (Microdochium Nivale)/Liquid Culture (Foot Rot Cereals)
Conidia of the fungus from cryogenic storage are directly mixed into nutrient broth (PDB potato dextrose broth). After placing a (DMSO) solution of test compound into a microtiter plate (96-well format), the nutrient broth containing the fungal spores is added. The test plates are incubated at 24° C. and the inhibition of growth is determined photometrically 4-5 days after application.

For series [3], the system named is Magnaporthe grisea (Pyricularia oryzae). Nature of the series: microbe, parasite or virus in culture. The note with it: read-out: control of Magnaporthe grisea. In kind it is cell-based.
For series [4], the system named is Mycosphaerella graminicola (Septoria tritici). In words: microbe, parasite or virus in culture. Format: cell-based. The note with it: Zymoseptoria tritici, read-out: control of Mycosphaerella graminicola.
The next series relates to Sclerotinia sclerotiorum. Nature of the series: Sclerotinia sclerotiorum/Liquid Culture (Cottony Rot). The following applies: liquid culture, growth inhibition photometrically 3-4 days after application, compared to untreated control. Format: cell-based. As to the method:
Sclerotinia sclerotiorum/Liquid Culture (Cottony Rot)
Mycelia fragments of a newly grown liquid culture of the fungus are directly mixed into nutrient broth (Vogels broth). After placing a (DMSO) solution of test compound into a microtiter plate (96-well format) the nutrient broth containing the fungal material is added. The test plates are incubated at 24° C. and the inhibition of growth is determined photometrically 3-4 days after application.

Series [5] concerns Glomerella lagenarium (Colletotrichum lagenarium). Nature of the series: Glomerella Lagenarium (Colletotrichum Lagenarium)/Liquid Culture (Anthracnose). The note with it: Colletotrichum orbiculare, liquid culture, growth inhibition photometrically 3-4 days after application, compared to untreated control. In kind it is cell-based. The method, then: Glomerella Lagenarium (Colletotrichum Lagenarium)/Liquid Culture (Anthracnose)
Conidia of the fungus from cryogenic storage are directly mixed into nutrient broth (PDB potato dextrose broth). After placing a (DMSO) solution of test compound into a microtiter plate (96-well format), the nutrient broth containing the fungal spores is added. The test plates are incubated at 24° C. and the inhibition of growth is measured photometrically 3-4 days after application.

A further series relates to Fusarium culmorum. Nature of the series: microbe, parasite or virus in culture. In kind it is cell-based. The note with it: read-out: control of Fusarium culmorum.
The subject of a further series is Gaeumannomyces graminis. Nature of the series: Gaeumannomyces Graminis/Liquid Culture (Take-all of Cereals). In kind it is cell-based. The following applies: liquid culture, growth inhibition photometrically 4-5 days after application, compared to untreated control. As to the method: Gaeumannomyces Graminis/Liquid Culture (Take-all of Cereals)
Mycelial fragments of the fungus from cryogenic storage were directly mixed into nutrient broth (PDB potato dextrose broth). After placing a (DMSO) solution of test compound into a microtiter plate (96-well format), the nutrient broth containing the fungal spores is added. The test plates are incubated at 24° C. and the inhibition of growth is determined photometrically 4-5 days after application.

Some results are limits rather than exact numbers.

With `Cn1nc2c(Br)cccc2c1C1=NC(C)(C)Cc2ccccc21` [Compound E-5, 1-(7-bromo-2-methyl-indazol-3-yl)-3,3-dimethyl-4H-isoquinoline], the melting point fell in the range of 161 to 162 °C. Further, the inhibition of growth at 20 ppm in series [1] was not below 80%. In [2], the inhibition of growth at 20 ppm was not below 80%. The inhibition of growth at 20 ppm in series [3] is not below 80%. In series [4], the inhibition of growth at 20 ppm was not below 80%. Moreover, in the series with Sclerotinia sclerotiorum, the inhibition of growth at 20 ppm was not below 80%.
Take `Cn1nc2c(Br)cccc2c1C1=NC(C)(C)C(C)(C)c2c(F)cccc21` [Compound E-8, 1-(7-bromo-2-methyl-indazol-3-yl)-5-fluoro-3,3,4,4-tetramethyl-isoquinoline]: the inhibition of growth at 20 ppm (in series [1]; in [5]; in series [2]; in series [3]; in series [4]; with Sclerotinia sclerotiorum) was not below 80% in each case.
Turning to `Cc1cccc2c(C3=NC(C)(C)C(C)(C)c4c(F)cccc43)n(C)nc12` [Compound E-9, 1-(2,7-dimethylindazol-3-yl)-5-fluoro-3,3,4,4-tetramethyl-isoquinoline], the inhibition of growth at 20 ppm (in series [1]; in series [5]; with Fusarium culmorum; with Gaeumannomyces graminis; in series [2]; in series [3]) was not below 80% throughout. Also, the inhibition of growth at 20 ppm (in series [4]; in the series on Sclerotinia sclerotiorum) was not below 80% each time.
`Cn1nc2c(Br)cccc2c1C1=NC(C)(C)C(F)(F)c2ccccc21` [Compound E-10, 1-(7-bromo-2-methyl-indazol-3-yl)-4,4-difluoro-3,3-dimethyl-isoquinoline] returned a melting point of 157 to 158 °C. For the same molecule, in series [1], the inhibition of growth at 20 ppm is not below 80%. Further, in series [5], the inhibition of growth at 20 ppm is not below 80%. The molecule also registered an inhibition of growth at 20 ppm in the series with Gaeumannomyces graminis not below 80%. The molecule also registered an inhibition of growth at 20 ppm in [2] not below 80%. The inhibition of growth at 20 ppm in [3] is not below 80%. This molecule also registered an inhibition of growth at 20 ppm in the series with Sclerotinia sclerotiorum not below 80%.
`Cc1cccc2c(C3=NC(C)(C)C(F)(F)c4ccccc43)n(C)nc12` [Compound E-11, 1-(2,7-dimethylindazol-3-yl)-4,4-difluoro-3,3-dimethyl-isoquinoline]: the melting point is 136 to 137 °C. In [1], this molecule registered an inhibition of growth at 20 ppm not below 80%. Besides, the inhibition of growth at 20 ppm in series [5] is not below 80%. In addition, the inhibition of growth at 20 ppm with Fusarium culmorum is not below 80%. In series [2], the inhibition of growth at 20 ppm was not below 80%. Further, in [3], the inhibition of growth at 20 ppm is not below 80%. Moreover, the inhibition of growth at 20 ppm in the series with Sclerotinia sclerotiorum is not below 80%.
With `Cc1cccc2c(C3=NC(C)(C)C(F)(F)c4c(F)cccc43)n(C)nc12` [Compound E-20, 1-(2,7-dimethylindazol-3-yl)-4,4,5-trifluoro-3,3-dimethyl-isoquinoline], the melting point lay in the range of 164 to 165 °C. Also, the inhibition of growth at 20 ppm in series [1] is not below 80%. This molecule also yielded an inhibition of growth at 20 ppm in series [5] not below 80%. The molecule also gave an inhibition of growth at 20 ppm in the series with Gaeumannomyces graminis not below 80%. Also, in series [2], the inhibition of growth at 20 ppm was not below 80%. The inhibition of growth at 20 ppm in series [3] is not below 80%.
Turning to `Cn1nc2cc(F)ccc2c1C1=NC(C)(C)C(C)(C)c2c(F)cccc21` [Compound E-21, 5-fluoro-1-(6-fluoro-2-methyl-indazol-3-yl)-3,3,4,4-tetramethyl-isoquinoline], the melting point was in the range of 131 to 133 °C. The inhibition of growth at 20 ppm in series [1] was not below 80%. Further, the inhibition of growth at 20 ppm in series [5] was not below 80%. In the series with Fusarium culmorum, the inhibition of growth at 20 ppm was not below 80%. In addition, the inhibition of growth at 20 ppm in series [2] was not below 80%. Besides, in series [3], the inhibition of growth at 20 ppm was not below 80%.
`Cn1nc2c(Cl)cccc2c1C1=NC(C)(C)C(C)(C)c2c(F)cccc21` [Compound E-22, 1-(7-chloro-2-methyl-indazol-3-yl)-5-fluoro-3,3,4,4-tetramethyl-isoquinoline] showed a melting point of 45 to 47 °C. Moreover, in [1], the inhibition of growth at 20 ppm was not below 80%. For the same molecule, the inhibition of growth at 20 ppm with Fusarium culmorum is not below 80%. This molecule also showed an inhibition of growth at 20 ppm in [2] not below 80%. In addition, the inhibition of growth at 20 ppm in series [3] was not below 80%. The inhibition of growth at 20 ppm in series [4] is not below 80%.
On to `Cn1nc2c(Cl)c(Cl)ccc2c1C1=NC(C)(C)C(C)(C)c2c(F)cccc21` [Compound E-23, 1-(6,7-dichloro-2-methyl-indazol-3-yl)-5-fluoro-3,3,4,4-tetramethyl-isoquinoline], for which the inhibition of growth at 20 ppm (in series [1]; in [5]; in the series on Gaeumannomyces graminis; in [2]; in series [3]; in [4]) was not below 80% each time. The inhibition of growth at 20 ppm in the series with Sclerotinia sclerotiorum is not below 80%.
Take `Cc1ccc2c(C3=NC(C)(C)C(F)(F)c4ccccc43)n(C)nc2c1C` [Compound E-25, 4,4-difluoro-3,3-dimethyl-1-(2,6,7-trimethylindazol-3-yl)isoquinoline]: the melting point lay within 154 to 157 °C. In addition, the inhibition of growth at 20 ppm in series [1] is not below 80%. The molecule further had an inhibition of growth at 20 ppm in series [5] not below 80%. Also, the inhibition of growth at 20 ppm in the series on Fusarium culmorum was not below 80%. The inhibition of growth at 20 ppm in series [2] was not below 80%. Moreover, the inhibition of growth at 20 ppm in [3] was not below 80%. In the series with Sclerotinia sclerotiorum, this molecule displayed an inhibition of growth at 20 ppm not below 80%.
The molecule `Cc1c(Cl)ccc2c(C3=NC(C)(C)C(C)(C)c4c(F)cccc43)n(C)nc12` [Compound E-26, 1-(6-chloro-2,7-dimethyl-indazol-3-yl)-5-fluoro-3,3,4,4-tetramethyl-isoquinoline] registered a melting point of 136 to 142 °C. The inhibition of growth at 20 ppm in series [1] is not below 80%. The molecule also yielded an inhibition of growth at 20 ppm in series [5] not below 80%. In series [2], this molecule registered an inhibition of growth at 20 ppm not below 80%. Moreover, in series [3], the inhibition of growth at 20 ppm is not below 80%. The molecule further registered an inhibition of growth at 20 ppm in the series with Sclerotinia sclerotiorum not below 80%.
Consider `Cc1ccc2c(C3=NC(C)(C)C(=O)c4ccccc43)n(C)nc2c1C` [Compound E-29, 3,3-dimethyl-1-(2,6,7-trimethylindazol-3-yl)isoquinolin-4-one], for which the melting point was 174 to 177 °C. The molecule also registered an inhibition of growth at 20 ppm in [1] not below 80%. The same molecule registered an inhibition of growth at 20 ppm in series [5] not below 80%. The inhibition of growth at 20 ppm in the series with Fusarium culmorum was not below 80%. This molecule displayed an inhibition of growth at 20 ppm in [2] not below 80%. For the same molecule, the inhibition of growth at 20 ppm in series [3] is not below 80%. In addition, the inhibition of growth at 20 ppm in the series with Sclerotinia sclerotiorum is not below 80%.
For the molecule `Cc1ccc2c(C3=NC(C)(C)C(C)(C)c4c(F)cccc43)n(C)nc2c1C` [Compound E-30, 5-fluoro-3,3,4,4-tetramethyl-1-(2,6,7-trimethylindazol-3-yl)isoquinoline], the melting point was in the range of 111 to 113 °C. In series [1], the inhibition of growth at 20 ppm is not below 80%. The inhibition of growth at 20 ppm in series [5] was not below 80%. In series [2], this molecule had an inhibition of growth at 20 ppm not below 80%. Besides, the inhibition of growth at 20 ppm in series [3] was not below 80%. Besides, the inhibition of growth at 20 ppm in series [4] was not below 80%. In the series with Sclerotinia sclerotiorum, the inhibition of growth at 20 ppm was not below 80%.
In the case of `CC1(C)N=C(c2onc3c(Cl)cccc23)c2ccccc2C1(F)F` [Compound E-31, 7-chloro-3-(4,4-difluoro-3,3-dimethyl-1-isoquinolyl)-2,1-benzoxazole], the inhibition of growth at 20 ppm (in series [1]; in [5]; in the series with Gaeumannomyces graminis; in series [3]; in the series with Sclerotinia sclerotiorum) was not below 80% each time.
In turn, `Cc1cccc2c(C3=NC(C)(C)C(C)(C)c4c(F)cccc43)snc12` [Compound E-32, 3-(5-fluoro-3,3,4,4-tetramethyl-1-isoquinolyl)-7-methyl-2,1-benzothiazole] gave a melting point of 96 to 98 °C. Besides, the inhibition of growth at 20 ppm in series [1] is not below 80%. The inhibition of growth at 20 ppm in series [5] was not below 80%. The inhibition of growth at 20 ppm in the series with Fusarium culmorum was not below 80%. Moreover, in the series on Gaeumannomyces graminis, the inhibition of growth at 20 ppm was not below 80%. The same molecule showed an inhibition of growth at 20 ppm in series [2] not below 80%. In series [3], the inhibition of growth at 20 ppm was not below 80%. In the series with Sclerotinia sclerotiorum, this molecule registered an inhibition of growth at 20 ppm not below 80%.
